Data on ten compounds can be found in US4209521A, “Anti-depressant indole derivatives” (John Wyeth & Brother Limited, priority 1977, dated 1980).

In series [1] the test system is uptake of 5-hydroxytryptamine in slices of cerebral cortex. The series can be described thus: Inhibition of 5-hydroxytryptamine uptake in brain slices. The note with it: for Potency Ratio (imipramine = 1.0) 5-Hydroxytryptamine: inhibition of 5-hydroxytryptamine uptake, rat cerebral cortex slices, relative to imipramine = 1.0; for Inhibition of 5-hydroxytryptamine uptake (in words): qualitative. Type of series: cell-based, rat. The procedure:
The effects of test compounds on the neuronal uptake of noradrenaline into slices of cerebral cortex prepared from rat brain is determined according to the method described by Snyder, Green and Hendley, Kinetics of H^3 -norepihephrine accumulation into slices from different regions of the rat brain (J. Pharm. exp. Therap. 164: 90-102) (1968). The effects of test compounds on the uptake of 5-hydroxytryptamine is obtained in a similar manner except that H^3 5-hydroxytryptamine is used in place of H^3 noradrenaline. Concentration-response curves are obtained both for the test compound and for the standard agent, imipramine. The potency of each test compound is expressed in proportion to that of imipramine. Thus, the potency ratio for the test compound= [formula]

The test system of series [2] is neuronal uptake of noradrenaline into slices of cerebral cortex. The series is described as follows: Inhibition of noradrenaline uptake in brain slices. The note with it: for Potency Ratio (imipramine = 1.0) Noradrenaline: inhibition of noradrenaline uptake, rat cerebral cortex slices, relative to imipramine = 1.0; for Inhibition of noradrenaline uptake (in words): qualitative. Type of series: cell-based, rat. The text has this: Concentration-response curves are obtained both for the test compound and for the standard agent, imipramine. The potency of each test compound is expressed in proportion to that of imipramine. Thus, the potency ratio for the test compound= [formula]

Series [3] relates to hypertensive rats. The series is described as follows: Another procedure for determining anti-hypertensive activity in hypertensive rats. Type of series: in vivo, rat. Particulars: qualitative.
The subject of series [4] is post-synaptic 5HT receptor. The series can be described thus: 5HT Antagonism in Vitro (isolated rat ileum). In kind it is cell-based.
Series [5] has as its system hypertensive rats. The series can be described thus: Anti-hypertensive activity in deoxycorticosterone acetate hypertensive rats. Type of series: in vivo, rat. Particulars: for Reduction of blood pressure (in words): hypertensive rats, p.o., qualitative. The procedure:
Female rats are rendered hypertensive by unilateral nephrectomy and the s.c. implantation of a pellet containing 30 mg of deoxycorticosterone acetate. The drinking water is replaced by normale saline ad lib for the first four weeks following preparation. Blood pressure stabilise at a hypertensive level after 6 weeks. Systolic pressure is measured indirectly before dosing with a test compound using an E and M pneumatic pulse transducer and a Devices MX2 recorder. Groups of 4 rats are dosed orally with suspensions or solutions of the test compound in 0.5% hydroxypropyl-methyl-cellulose 0.9% saline vehicle. Blood pressures are recorded again at 2, 6 and 24 hours and the results, expressed as a percentage of the pre-dose values compared with those of a similar group of rats receiving vehicle alone.

The test system of series [6] is mice (CF-1). The series is described as follows: CNS Activity (Effect on Behaviour of Mice). Type of series: in vivo, mouse (CF-1). The procedure:
The test compounds are administered orally to three mice (CF-1 14 to 24 grams) at each of the following doses: 400, 127, 40 and 12.7 mg/kg. The animals are watched for two hours during which time signs of general stimulation (i.e. increased spontaneous motor activity, hyperactivity on tactile stimulation, twitching), general depression (i.e. decreased spontaneous motor activity, decreased respiration) and autonomic activity (i.e. miosis, mydriasis, diarrhoea) are noted.

In series [7] the test system is mice. The series is described as follows: Motor Activity (Exploratory behaviour in mice). In kind it is in vivo, mouse. The note with it: i.p., qualitative. The procedure:
The test compounds were administered i.p. to mice (3 groups of 4 per dose) at time 0. Seventy minutes later the animals were transferred to square boxes placed beneath the detector heads of Aktograph activity monitors. The exploratory activity of the mice was counted over the following 20 minute period.

Setting [8] is: 50 mg/kg p.o., 2 hr after dosing.
Setting [9] is: 50 mg/kg p.o., 6 hr after dosing.
[10] abbreviates: 50 mg/kg p.o., 24 hr after dosing.
Where [11] appears, read: 10 mg/kg p.o., 2 hr after dosing.
Setting [12] is: 10 mg/kg p.o., 6 hr after dosing.
The mark [13] stands for this setting: 10 mg/kg p.o., 24 hr after dosing.
[14] abbreviates: 25 mg/kg p.o., 2 hr after dosing.
Where [15] appears, read: 25 mg/kg p.o., 6 hr after dosing.
Setting [16] is: 25 mg/kg p.o., 24 hr after dosing.
[17] abbreviates: mice, oral, watched for two hours.

“Also recorded” adds a separate entry of the source.

As to `O=C(NC(=O)c1ccc(F)cc1)NC1CCN(Cc2c[nH]c3ccccc23)CC1` [Example 8, 1-(4-Fluorobenzoyl)-3-(1-[indol-3-ylmethyl]piperid-4-yl)urea], the “Potency Ratio (imipramine = 1.0) 5-Hydroxytryptamine” value in series [1] is listed as 1.04. The “Potency Ratio (imipramine = 1.0) Noradrenaline” value in series [2] amounted to 0.1.

As for `O=C(NC(=O)c1ccccc1)NC1CCN(Cc2c[nH]c3ccccc23)CC1` [Compound I, 1-[1-(indol-3-ylmethyl)piperid-4-yl]-3-benzoyl urea], the “Anti-hypertensive activity (in words)” value in series [3] is given as “moderate activity”. Further, in series [4] (10^-6 M, isolated rat ileum), the “5HT antagonism: effect on responses of isolated rat ileum to 5-hydroxytryptamine” value is given as “the responses to the subsequent administration of 5HT were not affected” and the “Direct effect on the isolated rat ileum preparation” value is recorded as “caused the preparation to relax”. In addition, in series [4] (in vitro, summary statement), the “Antagonism of the post-synaptic 5HT receptor in vitro (in words)” value is reported as “does not antagonise the post-synaptic 5HT receptor in vitro”. Further, in series [1], the “Potency Ratio (imipramine = 1.0) 5-Hydroxytryptamine” value is 10.0 and the “Inhibition of 5-hydroxytryptamine uptake (in words)” value is reported as “potent inhibitors of 5HT uptake”. In series [5] (setting [8]), the “BP (systolic blood pressure)” value is reported as 90 % control and the “HR (heart rate)” value stood at 101 % control. Moreover, in series [5] (setting [9]), the “BP (systolic blood pressure)” value turned out to be 102 % control and the “HR (heart rate)” value is given as 98 % control. In series [5] (setting [10]), the “BP (systolic blood pressure)” value is recorded as 106 % control and the “HR (heart rate)” value is given as 84 % control. In series [5], the “Reduction of blood pressure (in words)” value is reported as “without significant activity; also recorded: does not induce marked CNS depression in animals or significantly reduce the blood pressure of hypertensive rats”. Also, in series [6] (mouse, in vivo), the “CNS depression / signs of sedation (in words)” value was “does not induce marked CNS depression in animals”. Further, in series [6] (mouse, in vivo, po, 120 min), the “Lowest Dose to induce effect: Decreased activity” value stood at 400 mg/kg p.o and the “Lowest Dose to induce effect: Slight weakness” value worked out at 400 mg/kg p.o. Further, the “Effect on exploratory behaviour (in words)” value in series [7] is “virtually without effect”. Also, in series [2], the “Potency Ratio (imipramine = 1.0) Noradrenaline” value is 0.06 and the “Inhibition of noradrenaline uptake (in words)” value is “weak inhibitors of noradrenaline uptake”.

On to `O=C(NC(=S)NC1CCN(Cc2c[nH]c3ccccc23)CC1)c1ccccc1` [Example 10, 1-[1-(Indol-3-ylmethyl)piperid-4-yl]-3-benzoylthiourea], for which, in series [1], the “Potency Ratio (imipramine = 1.0) 5-Hydroxytryptamine” value amounted to 6.5.

With `Cc1[nH]c2ccccc2c1CN1CCC(NC(=O)NC(=O)c2ccccc2)CC1` [Example 4, 1-Benzoyl-3-[1-([2-methylindol-3-yl]methyl)piperid-4-yl]urea], in series [1], the “Potency Ratio (imipramine = 1.0) 5-Hydroxytryptamine” value is reported as 0.8. Besides, the “Potency Ratio (imipramine = 1.0) Noradrenaline” value in series [2] was 0.16.

For `O=C(NC(=O)c1cccs1)NC1CCN(Cc2c[nH]c3ccccc23)CC1` [Example 3, 1-[1-(Indol-3-ylmethyl)piperid-4-yl]-3-(2-thenoyl)-urea], the “Potency Ratio (imipramine = 1.0) 5-Hydroxytryptamine” value in series [1] was determined as 7.8. In series [2], the “Potency Ratio (imipramine = 1.0) Noradrenaline” value is recorded as 0.19.

In the case of `O=C(NC(=O)c1ccccc1)NC1CCN(Cc2c[nH]c3ccc(O)cc23)CC1` [Example 5, 1-Benzoyl-3-[1-([5-hydroxyindol-3-yl]methyl)piperid-4-yl]urea], the “Potency Ratio (imipramine = 1.0) 5-Hydroxytryptamine” value in series [1] is reported as 12.3. Moreover, the “Potency Ratio (imipramine = 1.0) Noradrenaline” value in series [2] was determined as 0.2.

As for `O=C(NC(=O)c1ccccc1)NC1CCN(CCc2c[nH]c3ccccc23)CC1` [Compound II, 1-benzoyl-3-[1-(2-[3-indolyl]ethyl)piperid-4-yl]urea], the “Anti-hypertensive activity (in words)” value in series [3] is on record as “marked activity”. Besides, the “5HT antagonism: effect on responses of isolated rat ileum to 5-hydroxytryptamine” value in series [4] (10^-6 M, isolated rat ileum) is “non-competitive blockade”. The “Potency Ratio (imipramine = 1.0) 5-Hydroxytryptamine” value in series [1] stood at 8.0. Moreover, the “Inhibition of 5-hydroxytryptamine uptake (in words)” value in series [1] is recorded as “potent inhibitors of 5HT uptake”. The “BP (systolic blood pressure)” value was 64 % control in series [5] (setting [11]); 82 % control in series [5] (setting [12]); 99 % control in series [5] (setting [13]); 49 % control in series [5] (setting [14]); 52 % control in series [5] (setting [15]); 79 % control in series [5] (setting [16]). Moreover, the figures for the “BP (systolic blood pressure)” value in series [5] (setting [8]), in series [5] (setting [9]) and in series [5] (setting [10]) were 51 % control, 51 % control and 62 % control, respectively. Besides, the “HR (heart rate)” value in series [5] (setting [11]) amounted to 109 % control; in series [5] (setting [12]), 96 % control; in series [5] (setting [13]) it was 97 % control; in series [5] (setting [14]) it was 119 % control; in series [5] (setting [15]) it was 104 % control; in series [5] (setting [16]), 97 % control. Further, the “HR (heart rate)” value in series [5] (setting [8]) was 105 % control; in series [5] (setting [9]) it was 90 % control; in series [5] (setting [10]) it was 96 % control. Further, the “Reduction of blood pressure (in words)” value in series [5] was “marked reduction of blood pressure”. In addition, in series [6] (animals (mice), qualitative), the “CNS depression / signs of sedation (in words)” value is reported as “induced signs of sedation at doses considerably lower than those of compound I required to induce a similar effect”. The “Lowest Dose to induce effect: Ataxia” value in series [6] (setting [17]) is 127 mg/kg p.o. For the same compound, in series [6] (setting [17]), the “Lowest Dose to induce effect: Catalepsy” value worked out at 400 mg/kg p.o. In series [6] (setting [17]), the “Lowest Dose to induce effect: Decreased activity” value is 4.0 mg/kg p.o. For the same compound, the “Lowest Dose to induce effect: Decreased respiration” value in series [6] (setting [17]) came to 400 mg/kg p.o. Moreover, in series [6] (setting [17]), the “Lowest Dose to induce effect: Ptosis” value was 40 mg/kg p.o. Further, in series [7], the “Effect on exploratory behaviour (in words)” value is “marked reduction of exploratory behaviour”. For the same compound, in series [2], the “Potency Ratio (imipramine = 1.0) Noradrenaline” value is recorded as 0.2. For the same compound, the “Inhibition of noradrenaline uptake (in words)” value in series [2] is reported as “weak inhibitors of noradrenaline uptake”.

Consider `COc1cccc(C(=O)NC(=O)NC2CCN(Cc3c[nH]c4ccccc34)CC2)c1` [Example 11, 3-(3-Methoxybenzoyl)-1-(1-[indol-3-ylmethyl]piperid-4-yl)urea], for which, in series [1], the “Potency Ratio (imipramine = 1.0) 5-Hydroxytryptamine” value is on record as 2.7.

Regarding `COc1ccc2[nH]cc(CN3CCC(NC(=O)NC(=O)c4ccccc4)CC3)c2c1` [Example 2, 1-[1-(5-Methoxyindol-3-ylmethyl)piperid-4-yl]-3-benzoylurea], the “Potency Ratio (imipramine = 1.0) 5-Hydroxytryptamine” value in series [1] is 3.2. In addition, in series [2], the “Potency Ratio (imipramine = 1.0) Noradrenaline” value was “inactive”.

`COc1ccc(C(=O)NC(=O)NC2CCN(Cc3c[nH]c4ccccc34)CC2)cc1` [Example 6, 3-(4-methoxybenzoyl)-1-(1-[indol-3-ylmethyl]piperid-4-yl)urea]: the “Potency Ratio (imipramine = 1.0) 5-Hydroxytryptamine” value in series [1] was 5.0. Moreover, in series [2], the “Potency Ratio (imipramine = 1.0) Noradrenaline” value turned out to be 0.06.
